Results taken from publication PMC11585590 (Nature Communications, 2024).
“Also recorded” adds a separate entry of the source. Peptide text beside a SMILES is read from it. * marks the point of attachment. Cbz = O=C(OCc1ccccc1)*

Key:
[1] = biological target: T1, HiBiT-tagged WDR5 (Homo sapiens, UniProt P61964+Q9Y4B6); experiment: Proteasome dependence: HiBiT-WDR5 level after 5 h with PROTAC 4 and/or MG132; format: cell-based; settings: co-treatment with PROTAC 4 at 1.5 µM
[2] = biological target: WDR5 (Homo sapiens, UniProt P61964); experiment: Western blot of WDR5 in MV4-11 cells, 1.5 μM PROTAC, 24 h; format: cell-based
[3] = biological target: T1, HiBiT-tagged WDR5; experiment: Exogenous HiBiT WDR5 degradation assay, 24 h; format: cell-based; settings: for Dmax of exogenous HiBiT-WDR5 degradation: MV4-11 cells expressing HiBiT-tagged WDR5, 24 h; for Dmax: MV4-11, read-out: Dmax of exogenous HiBiT-WDR5 degradation, MV4-11 cells expressing HiBiT-tagged WDR5, 24 h
[4] = test system: WDR5; settings: highest concentration of 7.5 µM, no hook effect; cited from earlier work
[5] = test system: MV4-11 cells expressing HiBiT WDR5; experiment: ATPlite viability of MV4-11 cells expressing HiBiT WDR5, 24 h; format: cell-based; settings: 2 nM to 10 μM
[6] = biological target: DCAF1-PROTAC-WDR5 ternary complex (Homo sapiens, UniProt P61964+Q9Y4B6); experiment: SPR ternary complex formation: PROTAC with 0.25 µM WDR5 on immobilized DCAF1; format: binding; settings: WDR5 0.25 µM
[7] = biological target: DCAF1 (Homo sapiens, UniProt Q9Y4B6); experiment: SPR ternary complex format: PROTAC alone on immobilized DCAF1; format: binding; settings: for Rmax: PROTAC alone, absence of WDR5; for koff: read-out: koff (1/s); for kon: read-out: kon (1/Ms)
[8] = biological target: endogenous WDR5 (Homo sapiens, UniProt P61964); experiment: Endogenous WDR5 degradation assay using ProteinSimple's Jess, 24 h; format: cell-based; settings: for Dmax: MV4-11, read-out: Dmax of endogenous WDR5 degradation, parental MV4-11 cells, 24 h; for DC50: read-out: EC50 of endogenous WDR5 degradation

T1 sequence (Q9Y4B6 whole entry, one chain of several): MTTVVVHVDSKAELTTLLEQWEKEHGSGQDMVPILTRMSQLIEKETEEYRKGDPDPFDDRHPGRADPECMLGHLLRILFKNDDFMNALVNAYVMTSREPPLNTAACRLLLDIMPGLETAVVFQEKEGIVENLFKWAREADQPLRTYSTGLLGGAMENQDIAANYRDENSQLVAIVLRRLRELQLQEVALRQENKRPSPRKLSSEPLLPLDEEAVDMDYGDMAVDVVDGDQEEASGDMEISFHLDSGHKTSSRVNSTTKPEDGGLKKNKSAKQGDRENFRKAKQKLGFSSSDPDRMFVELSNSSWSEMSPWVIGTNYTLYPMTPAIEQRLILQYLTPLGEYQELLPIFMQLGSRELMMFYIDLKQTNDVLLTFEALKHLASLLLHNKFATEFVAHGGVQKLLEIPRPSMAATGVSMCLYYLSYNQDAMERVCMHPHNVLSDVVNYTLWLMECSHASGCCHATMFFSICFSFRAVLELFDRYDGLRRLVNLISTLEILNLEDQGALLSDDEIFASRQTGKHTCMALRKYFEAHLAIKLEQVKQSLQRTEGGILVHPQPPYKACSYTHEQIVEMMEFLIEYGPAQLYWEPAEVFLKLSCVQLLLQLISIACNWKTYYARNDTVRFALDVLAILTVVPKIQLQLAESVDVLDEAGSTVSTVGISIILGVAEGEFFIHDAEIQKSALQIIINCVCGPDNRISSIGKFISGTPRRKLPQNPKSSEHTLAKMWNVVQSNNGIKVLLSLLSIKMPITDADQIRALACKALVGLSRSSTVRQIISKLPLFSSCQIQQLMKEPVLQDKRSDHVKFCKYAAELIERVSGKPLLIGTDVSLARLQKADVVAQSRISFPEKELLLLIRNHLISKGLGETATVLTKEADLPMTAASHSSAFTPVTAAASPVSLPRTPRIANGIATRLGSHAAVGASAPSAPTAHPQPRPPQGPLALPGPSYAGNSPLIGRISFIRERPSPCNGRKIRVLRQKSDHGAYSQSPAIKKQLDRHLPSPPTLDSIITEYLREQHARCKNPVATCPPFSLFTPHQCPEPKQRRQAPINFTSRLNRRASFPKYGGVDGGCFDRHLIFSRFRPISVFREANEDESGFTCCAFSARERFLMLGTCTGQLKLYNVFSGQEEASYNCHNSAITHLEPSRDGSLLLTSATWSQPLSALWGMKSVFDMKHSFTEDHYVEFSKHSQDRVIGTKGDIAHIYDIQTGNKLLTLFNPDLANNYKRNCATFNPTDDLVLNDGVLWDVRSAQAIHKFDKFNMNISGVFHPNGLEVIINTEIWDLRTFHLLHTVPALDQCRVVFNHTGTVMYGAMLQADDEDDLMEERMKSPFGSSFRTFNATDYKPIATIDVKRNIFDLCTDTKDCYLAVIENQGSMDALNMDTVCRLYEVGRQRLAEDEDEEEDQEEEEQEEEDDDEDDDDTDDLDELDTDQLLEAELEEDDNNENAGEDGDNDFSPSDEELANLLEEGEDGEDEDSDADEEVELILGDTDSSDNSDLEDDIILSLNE
Chain of DCAF1 (Q9Y4B6 1077-1390): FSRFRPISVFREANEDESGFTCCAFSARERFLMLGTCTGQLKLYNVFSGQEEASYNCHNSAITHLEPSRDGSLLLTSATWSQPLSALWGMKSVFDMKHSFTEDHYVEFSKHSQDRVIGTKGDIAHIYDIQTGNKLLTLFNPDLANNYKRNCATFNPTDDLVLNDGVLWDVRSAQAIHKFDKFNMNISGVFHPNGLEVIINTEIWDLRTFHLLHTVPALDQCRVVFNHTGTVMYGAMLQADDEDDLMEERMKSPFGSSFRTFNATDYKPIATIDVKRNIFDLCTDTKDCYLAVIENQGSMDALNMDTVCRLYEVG
Chain of DCAF1-PROTAC-WDR5 ternary complex (Q9Y4B6 1077-1390, one chain of several): as the sequence (Q9Y4B6 1077-1390) above

| HiBiT-WDR5 level reached on rescue by MG132 [1] | WDR5 protein level by Western blot [2] | Rmax [6] | Dmax [3] | Kd [7] | Rmax [7] | koff [7] | kon [7] | Dmax [8] | DC50 ([8]; parental MV4-11 cells, 24 h) | Dmax of endogenous WDR5 degradation ([8]; parental MV4-11 cells, 24 h) | degradation of exogenous WDR5 in cells ([3]; MV4-11 cells) | degradation of endogenous WDR5 in cells ([8]; MV4-11 cells) | Compound | Dmax of exogenous HiBiT-WDR5 degradation [3] | Dmax of WDR5 degradation [4] | toxicity / viability after 24 h (ATPlite) [5] |
| --- | --- | --- | --- | --- | --- | --- | --- | --- | --- | --- | --- | --- | --- | --- | --- | --- |
| approximately 100% | – | – | – | – | – | – | – | – | – | – | – | – | CC(C)C[C@@H](C=O)NC(=O)[C@H](CC(C)C)NC(=O)[C@H](CC(C)C)NC(=O)OCc1ccccc1 [MG132] (Cbz-Leu-Leu-Leu-aldehyde) | – | – | – |
| – | moderate WDR5 degradation | 390 | 31.6 ± 5.5% | 0.046 ± 0.0004 µM | 101 | 0.011 s⁻¹ | 249000 M⁻¹ s⁻¹ | 23.5 ± 11.4% | 0.186 ± 0.089 µM | – | – | – | C[C@@H]1CN(c2ccc(-c3cc(C(=O)NCCOCCOCCOCCOCCNC(=O)/C=C/c4[nH]cc(C(=O)N[C@@H](CC(N)=O)c5ccc(F)c(Cl)c5)c4-c4ccc(Cl)cc4F)ccc3F)cc2NC(=O)c2c[nH]c(=O)cc2C(F)(F)F)C[C@H](C)N1C [PROTAC 1] | 32% | – | – |
| – | moderate WDR5 degradation | 621 | 41.2 ± 2.5% | 0.038 ± 0.0006 µM | 106 | 0.008 s⁻¹ | – | 21.9 ± 11.1% | 0.135 ± 0.006 µM | – | – | – | C[C@@H]1CN(c2ccc(-c3cc(C(=O)NCCOCCOCCOCCOCCNC(=O)Cn4cc(-c5[nH]cc(C(=O)N[C@@H](CC(N)=O)c6ccc(F)c(Cl)c6)c5-c5ccc(Cl)cc5F)cn4)ccc3F)cc2NC(=O)c2c[nH]c(=O)cc2C(F)(F)F)C[C@H](C)N1C [PROTAC 2] | – | – | – |
| – | moderate WDR5 degradation | 685 | 41.9 ± 4.5% | 0.048 ± 0.0028 µM | 42 | 0.003 s⁻¹ | 69600 M⁻¹ s⁻¹ | 33.4 ± 6.8% | 0.093 ± 0.037 µM | – | – | – | C[C@@H]1CN(c2ccc(-c3cc(C(=O)NCCOCCOCCOCCOCCOCCOCCNC(=O)/C=C/c4[nH]cc(C(=O)N[C@@H](CC(N)=O)c5ccc(F)c(Cl)c5)c4-c4ccc(Cl)cc4F)ccc3F)cc2NC(=O)c2ccc(F)cc2C(F)(F)F)C[C@H](C)N1C [PROTAC 3] | – | – | – |
| – | – | – | – | – | – | – | – | – | – | – | did not degrade | did not degrade | C[C@@H]1CN(c2ccc(-c3cc(C(=O)NCCCNC(=O)/C=C/c4[nH]cc(C(=O)N[C@@H](CC(N)=O)c5ccc(F)c(Cl)c5)c4-c4ccc(Cl)cc4F)ccc3F)cc2NC(=O)c2c[nH]c(=O)cc2C(F)(F)F)C[C@H](C)N1C [PROTAC 5] | – | – | – |

| Compound | HiBiT-WDR5 level reached on rescue by MG132 [1] | WDR5 protein level by Western blot [2] | Rmax [6] | Dmax [3] | Kd [7] | Rmax [7] | koff [7] | kon [7] | Dmax [8] | DC50 ([8]; parental MV4-11 cells, 24 h) | Dmax of endogenous WDR5 degradation ([8]; parental MV4-11 cells, 24 h) | degradation of exogenous WDR5 in cells ([3]; MV4-11 cells) | degradation of endogenous WDR5 in cells ([8]; MV4-11 cells) | Dmax of exogenous HiBiT-WDR5 degradation [3] | Dmax of WDR5 degradation [4] | toxicity / viability after 24 h (ATPlite) [5] |
| --- | --- | --- | --- | --- | --- | --- | --- | --- | --- | --- | --- | --- | --- | --- | --- | --- |
| Cc1ncsc1-c1ccc([C@H](C)NC(=O)[C@@H]2C[C@@H](O)CN2C(=O)[C@@H](NC(=O)CNC(=O)c2ccc(F)c(-c3ccc(N4C[C@@H](C)N(C)[C@@H](C)C4)c(NC(=O)c4c[nH]c(=O)cc4C(F)(F)F)c3)c2)C(C)(C)C)cc1 [MS67, reference compound] | – | significantly decreased; also recorded: comparable levels of WDR5 degradation | – | – | – | – | – | – | – | – | – | – | – | 78.7% | ~ 70% | displayed some toxicity |
| C[C@@H]1CN(c2ccc(-c3cc(C(=O)NCCOCCOCCOCCOCCOCCOCCOCCOCCOCCNC(=O)/C=C/c4[nH]cc(C(=O)N[C@@H](CC(N)=O)c5ccc(F)c(Cl)c5)c4-c4ccc(Cl)cc4F)ccc3F)cc2NC(=O)c2c[nH]c(=O)cc2C(F)(F)F)C[C@H](C)N1C [PROTAC 4] | – | significantly decreased; also recorded: comparable levels of WDR5 degradation | 818 | 73.8 ± 2.9% | 0.059 ± 0.0009 µM | 102 | 0.014 s⁻¹ | 239000 M⁻¹ s⁻¹ | 49.1% | 0.04 ± 0.024 µM | 49 ± 1.9% | – | – | – | – | did not show a significant toxicity |
